From patent publication US7842710B2, “Carboxamides” (Bayer Cropscience AG, priority 2004, dated 2010)

Experiment: logP determination by HPLC on a reverse phase column (C18), EEC Directive 79/831 Annex V.A8
Format: physicochemical
Conditions: HPLC C18, 43° C.; for logP (pH 2.3): Table 1; for chromatographic logP: reverse phase HPLC column (C18), pH 2.3
Procedure: The specified logP values are determined by HPLC on a reverse phase column (C18) in accordance with EEC Directive 79/831 Annex V.A8. Temperature: 43° C. Eluents for the measurement in the acid range (pH 2.3): 0.1% aqueous phosphoric acid, acetonitrile; linearer gradient of 10% acetonitrile to 90% acetonitrile. Calibration is performed with unbranched alkyl-2-ones (with 3 to 16 carbon atoms) with known logP values (determination of the logP values based on retention times by linear interpolation between two sequential alkyl ketones).

Compound	logP (pH 2.3)	chromatographic logP
CCC(C)SC(C)c1ccccc1NC(=O)C1=C(C)OCCS1 (centres unmarked) [compound 89]	4.10	–
CCC(C)SC(C)c1ccccc1NC(=O)c1cn(C)nc1C(F)(F)F (mixture of isomers) [compound 45]	4.14	–
CC(C)S(=O)(=O)C(C)c1ccccc1NC(=O)c1cccnc1Cl (centres unmarked) [compound 5]	1.68	–
CC(C)S(=O)(=O)C(C)c1ccccc1N (centres unmarked) [III-2, 2-[1-(isopropylsulfonyl)ethyl]aniline]	–	1.28
CC(C)OC(C)c1ccccc1NC(=O)c1cn(C)nc1C(F)F (centres unmarked) [compound 135]	2.89	–
CCCC(C)SC(C)c1ccccc1NC(=O)c1c(C)nn(C)c1Cl (racemic) [compound 113]	4.07	–
CC(C)NC(C)c1ccccc1NC(=O)c1cn(C)nc1C(F)(F)F (racemic) [compound 41]	1.06	–
COCc1ccccc1NC(=O)C1=C(C)OCC1 [compound 1]	2.18	–
CC(C)OC(C)c1ccccc1NC(=O)c1cn(C)nc1C(F)(F)F (centres unmarked) [compound 127]	3.14	–
COC(C)c1ccccc1NC(=O)c1cn(C)nc1C(F)(F)F (racemic) [compound 32]	2.46	–
CC(C)SC(C)c1ccccc1NC(=O)c1cccnc1Cl (centres unmarked) [compound 22]	2.95	–
Cc1nn(C)c(F)c1C(=O)Nc1ccccc1C(C)SC1CCCC1 (centres unmarked) [compound 100]	4.03	–
Cn1cc(C(=O)Nc2ccccc2CCOC(=O)C(Cl)Cl)c(C(F)(F)F)n1 [compound 66]	2.76	–
CC(SC1CCCC1)c1ccccc1NC(=O)c1cn(C)nc1C(F)F (centres unmarked) [compound 101]	3.48	–
Cc1nn(C)c(F)c1C(=O)Nc1ccccc1COC(=O)C(C)C [compound 51]	2.39	–
CCCC(C)SC(C)c1ccccc1NC(=O)c1cn(C)cc1C(F)(F)F (racemic) [compound 109]	4.29	–
CCCC(C)SC(C)c1ccccc1NC(=O)c1cn(C)nc1C(F)F (centres unmarked) [compound 85]	3.76	–
CC(C)SCc1ccccc1NC(=O)c1cn(C)nc1C(F)(F)F [compound 36]	3.05	–
CCC(C)SC(C)c1ccccc1NC(=O)c1ccccc1I (mixture of isomers) [compound 49]	4.33	–
CCCC(C)SC(C)c1ccccc1NC(=O)c1ccccc1I (mixture of isomers) [compound 47]	4.75	–
CC(C)C(=O)OCc1ccccc1NC(=O)c1cccnc1Cl [compound 57]	2.38	–
CCCC(C)SC(C)c1ccccc1NC(=O)C1=C(C)OCCS1 (centres unmarked) [compound 87]	4.53	–
CCCC(C)SC(C)c1ccccc1NC(=O)c1c(C(F)(F)F)nn(C)c1F (racemic) [compound 111]	4.38	–
CC(C)S(=O)(=O)C(C)c1ccccc1NC(=O)c1cn(C)nc1C(F)(F)F (centres unmarked) [compound 15]	2.09	–
CCCC(C)SC(C)c1ccccc1NC(=O)c1cn(C)nc1C (centres unmarked) [compound 82]	3.27	–

Compound	logP (pH 2.3)	chromatographic logP
Cc1sccc1C(=O)Nc1ccccc1C(C)SC(C)C (centres unmarked) [compound 20]	4.03	–
CC(C)S(=O)(=O)C(C)c1ccccc1NC(=O)c1cn(C)nc1C(F)F (centres unmarked) [compound 16]	1.86	–
Cc1nc(C(F)(F)F)c(C(=O)Nc2ccccc2C(C)S(=O)(=O)C(C)C)s1 (centres unmarked) [compound 9]	2.35	–
Cn1cc(C(=O)Nc2ccccc2CO)c(C(F)(F)F)n1 [compound 178]	1.61	–
CC(C)S(=O)(=O)C(C)c1ccccc1NC(=O)c1ccccc1Br (centres unmarked) [compound 3]	2.30	–
CC(C)OC(C)c1ccccc1NC(=O)c1cn(C)nc1I (centres unmarked) [compound 129]	2.75	–
CC(SC1CCCC1)c1ccccc1NC(=O)c1ccccc1Br (centres unmarked) [compound 93]	4.34	–
CC(C)S(=O)(=O)C(C)c1ccccc1NC(=O)C1=C(C(F)(F)F)OCCS1 (centres unmarked) [compound 10]	2.39	–
Cc1occc1C(=O)Nc1ccccc1C(C)SC(C)C (centres unmarked) [compound 24]	3.71	–
Cc1nn(C)c(F)c1C(=O)Nc1ccccc1CCO [compound 63]	1.21	–
Cc1ccccc1C(=O)Nc1ccccc1C(C)SC1CCCC1 (centres unmarked) [compound 99]	4.44	–
CCC(C)SC(C)c1ccccc1NC(=O)c1cn(C)cc1C(F)(F)F (centres unmarked) [compound 88]	3.92	–
Cc1nn(C)cc1C(=O)Nc1ccccc1C(C)SC(C)C (centres unmarked) [compound 17]	2.53	–
CC(C)S(=O)(=O)C(C)c1ccccc1NC(=O)c1ccccc1C(F)(F)F (centres unmarked) [Compound No. 6]	2.53	–
CC(C)C(=O)OCCc1ccccc1NC(=O)c1cn(C)nc1C(F)(F)F [compound 64]	2.79	–
CCC(C)SC(C)c1ccccc1NC(=O)c1c(C(F)(F)F)nn(C)c1F (racemic) [compound 121]	3.99	–
CCC(C)SC(C)c1ccccc1NC(=O)c1ccccc1Br (centres unmarked) [compound 83]	4.21	–
CC(C)OC(C)c1ccccc1NC(=O)C1=C(C(F)(F)F)OCCS1 (centres unmarked) [compound 137]	3.64	–
CC(C)S(=O)(=O)Cc1ccccc1[N+](=O)[O-] [VI-3, 1-[(isopropylsulfonyl)methyl]-2-nitrobenzene]	–	1.63
CC(C)SC(C)c1ccccc1NC(=O)c1cn(C)nc1C(F)(F)F (centres unmarked) [compound 18]	3.27	–
CC(C)SC(C)c1ccccc1NC(=O)c1ccccc1Cl (centres unmarked) [compound 21]	3.74	–
CCCC(C)SC(C)c1ccccc1NC(=O)c1c(C)nn(C)c1F (mixture of isomers) [compound 43]	3.82	–
CCCC(C)SC(C)c1ccccc1NC(=O)c1ccccc1C(F)(F)F (centres unmarked) [compound 70]	4.71	–
CCC(C)SC(C)c1ccccc1NC(=O)C1=C(C)OCCS1 (centres unmarked) [compound 86]	4.07	–
CCCC(C)SC(C)c1ccccc1NC(=O)c1sc(C)nc1C(F)(F)F (mixture of isomers) [compound 44]	4.52	–

Compound	logP (pH 2.3)	chromatographic logP
CCC(C)SC(C)c1ccccc1NC(=O)c1ccccc1C(F)(F)F (centres unmarked) [compound 75]	4.31	–
COC(C)c1ccccc1NC(=O)c1ccccc1C(F)(F)F (racemic) [compound 34]	2.99	–
CC(C)S(=O)(=O)C(C)c1ccccc1NC(=O)c1ccccc1Cl (centres unmarked) [compound 12]	2.23	–
Cc1occc1C(=O)Nc1ccccc1C(C)SC1CCCC1 (centres unmarked) [compound 91]	4.31	–
O=C(Nc1ccccc1COC(=O)C(Cl)Cl)c1cccnc1Cl [compound 58]	2.38	–
CC(Cl)c1ccccc1[N+](=O)[O-] (centres unmarked) [VIII-1, 1-(1-chloroethyl)-2-nitrobenzene]	–	2.87
CCCC(C)SC(C)c1ccccc1NC(=O)c1ccccc1C (racemic) [compound 112]	4.76	–
CC(=O)OC(C)(C)CCc1ccccc1NC(=O)c1ccccc1C(F)(F)F [compound 61]	3.30	–
Cc1nn(C)c(F)c1C(=O)Nc1ccccc1CCOC(=O)C(Cl)Cl [compound 68]	2.43	–
CC(C)SC(C)c1ccccc1[N+](=O)[O-] (centres unmarked) [VII-1, 1-[1-(isopropylthio)ethyl]-2-nitrobenzene]	–	3.89
CC(C)SCc1ccccc1NC(=O)c1ccccc1I [compound 39]	3.68	–
CC(C)OC(C)c1ccccc1NC(=O)c1cnn(C)c1C(F)F (centres unmarked) [compound 136]	3.67	–
CC1=C(C(=O)Nc2ccccc2C(C)SC(C)C)SCCO1 (centres unmarked) [compound 98]	3.65	–
Cn1cc(C(=O)Nc2ccccc2COC(=O)C(Cl)Cl)c(C(F)(F)F)n1 [compound 56]	2.69	–
CC(C)SC(C)c1ccccc1N (centres unmarked) [III-1, 2-[1-(isopropylthio)ethyl]aniline]	–	2.45
Cc1occc1C(=O)Nc1ccccc1C(C)S(=O)(=O)C(C)C (centres unmarked) [compound 8]	2.21	–
CC(C)SCc1ccccc1N [III-3, 2-[1-(isopropylthio)methyl]aniline]	–	1.94
O=C(Nc1ccccc1COC(=O)C(Cl)Cl)c1ccccc1C(F)(F)F [compound 50]	3.15	–
Cc1nc(C(F)(F)F)c(C(=O)Nc2ccccc2C(C)SC(C)C)s1 (centres unmarked) [compound 25]	3.73	–
Cc1nn(C)cc1C(=O)Nc1ccccc1C(C)S(=O)(=O)C(C)C (centres unmarked) [compound 14]	1.46	–
CC(C)SC(C)c1ccccc1NC(=O)C1=C(C(F)(F)F)OCCS1 (racemic) [compound 30]	3.76	–
CC(C)OC(C)c1ccccc1NC(=O)c1ccccc1C(F)(F)F (centres unmarked) [compound 134]	3.81	–
CCCC(C)SC(C)c1ccccc1NC(=O)C1=C(C(F)(F)F)OCCS1 (racemic) [compound 110]	4.49	–
CC(C)SCc1ccccc1[N+](=O)[O-] [VII-2, 1-[1-(isopropylthio)methyl]-2-nitrobenzene]	–	3.28
